By IC50 is commonly meant the concentration that inhibits the measured activity by half. Low values mean greater potency in that assay, high ones weaker potency in that assay.

Sequence of human Nav1.7 (Q15858 whole entry): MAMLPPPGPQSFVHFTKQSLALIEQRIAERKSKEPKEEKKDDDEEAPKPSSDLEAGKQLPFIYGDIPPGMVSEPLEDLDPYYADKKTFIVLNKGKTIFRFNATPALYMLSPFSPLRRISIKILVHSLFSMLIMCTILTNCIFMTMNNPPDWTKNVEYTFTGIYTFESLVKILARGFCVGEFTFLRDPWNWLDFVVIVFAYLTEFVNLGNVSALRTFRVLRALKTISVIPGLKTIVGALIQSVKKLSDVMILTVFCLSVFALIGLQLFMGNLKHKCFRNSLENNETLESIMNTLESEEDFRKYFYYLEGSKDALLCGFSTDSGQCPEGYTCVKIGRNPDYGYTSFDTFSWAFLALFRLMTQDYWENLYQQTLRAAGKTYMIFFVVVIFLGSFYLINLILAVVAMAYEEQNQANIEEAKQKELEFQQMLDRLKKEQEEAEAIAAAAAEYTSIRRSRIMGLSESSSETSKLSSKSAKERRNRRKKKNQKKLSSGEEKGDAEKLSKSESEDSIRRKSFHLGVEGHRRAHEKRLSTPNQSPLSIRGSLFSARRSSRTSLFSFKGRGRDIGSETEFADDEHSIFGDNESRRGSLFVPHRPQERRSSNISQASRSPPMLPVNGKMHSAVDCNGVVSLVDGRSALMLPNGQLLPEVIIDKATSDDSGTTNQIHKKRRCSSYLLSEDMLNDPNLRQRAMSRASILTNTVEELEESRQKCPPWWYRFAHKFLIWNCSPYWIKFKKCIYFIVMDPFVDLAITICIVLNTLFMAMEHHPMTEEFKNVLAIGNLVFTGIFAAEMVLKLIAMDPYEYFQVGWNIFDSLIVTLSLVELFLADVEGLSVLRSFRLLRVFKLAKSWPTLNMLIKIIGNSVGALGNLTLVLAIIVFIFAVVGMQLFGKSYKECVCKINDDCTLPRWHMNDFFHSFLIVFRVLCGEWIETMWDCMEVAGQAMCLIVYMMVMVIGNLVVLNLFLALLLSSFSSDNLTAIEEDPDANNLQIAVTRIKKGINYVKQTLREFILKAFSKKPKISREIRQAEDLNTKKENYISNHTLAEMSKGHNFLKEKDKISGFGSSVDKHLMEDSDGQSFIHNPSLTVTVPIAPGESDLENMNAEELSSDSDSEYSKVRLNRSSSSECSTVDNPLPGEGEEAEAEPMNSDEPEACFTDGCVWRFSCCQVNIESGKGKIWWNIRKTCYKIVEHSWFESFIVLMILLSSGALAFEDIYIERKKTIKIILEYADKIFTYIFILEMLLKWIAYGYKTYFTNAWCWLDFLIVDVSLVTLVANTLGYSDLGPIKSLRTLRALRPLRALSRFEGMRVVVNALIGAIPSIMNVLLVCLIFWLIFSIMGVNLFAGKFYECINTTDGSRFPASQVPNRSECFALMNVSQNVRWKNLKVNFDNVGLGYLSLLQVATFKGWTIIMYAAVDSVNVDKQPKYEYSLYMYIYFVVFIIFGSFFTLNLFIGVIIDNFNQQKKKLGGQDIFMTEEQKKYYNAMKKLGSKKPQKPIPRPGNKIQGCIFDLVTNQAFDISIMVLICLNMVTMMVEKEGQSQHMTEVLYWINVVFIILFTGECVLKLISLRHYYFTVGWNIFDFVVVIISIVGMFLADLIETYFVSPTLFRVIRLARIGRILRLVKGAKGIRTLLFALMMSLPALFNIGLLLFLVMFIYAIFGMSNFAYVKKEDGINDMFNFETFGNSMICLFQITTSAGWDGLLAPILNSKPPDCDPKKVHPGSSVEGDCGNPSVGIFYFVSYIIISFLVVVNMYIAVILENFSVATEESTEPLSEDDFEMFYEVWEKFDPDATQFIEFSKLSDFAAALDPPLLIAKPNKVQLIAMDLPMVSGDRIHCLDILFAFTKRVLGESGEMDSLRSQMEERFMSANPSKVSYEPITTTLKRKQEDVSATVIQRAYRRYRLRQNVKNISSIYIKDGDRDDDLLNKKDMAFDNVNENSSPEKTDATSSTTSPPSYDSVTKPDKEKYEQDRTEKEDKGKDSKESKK

The target in the experiment is human Nav1.7 (Homo sapiens (Human), UniProt Q15858). The experiment in a line: Nav 1.7 In Vitro PX Assay (PatchXpress whole cell voltage clamp). In kind it is cell-based. Conditions: in-vitro Nav 1.7 PX data. A digest of the protocol:
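Partially inactivated channels (20–50% inactivation at holding potential) probed by 20 ms pulses to −10 mV repeated at 0.1 Hz, in stable human Nav1.7 HEK293 cells.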
On to `CNC(=O)N(c1ccc(S(=O)(=O)Nc2nocc2C)cn1)c1cc(F)c(-c2ccc(F)c(OCC(F)(F)F)c2)cc1OC` [Example 2-14, 6-(1-(2,4′-difluoro-5-methoxy-3′-(2,2,2-trifluoroethoxy)-[1,1′-biphenyl]-4-yl)-3-methylureido)-N-(4-methylisoxazol-3-yl)pyridine-3-sulfonamide], for which the IC50 stood at 621 nM.
Next, `CNC(=O)N(c1ccc(S(=O)(=O)Nc2ncco2)cn1)c1cc(Cl)c(-c2ccc(F)c(OCC(F)(F)F)c2)cc1OC` [Example 3-4, 6-((2-chloro-4′-fluoro-5-methoxy-3′-(2,2,2-trifluoroethoxy)-4-biphenylyl)(methylcarbamoyl)amino)-N-1,3-oxazol-2-yl-3-pyridinesulfonamide]: 53 nM; `CNC(=O)N(c1ccc(S(=O)(=O)Nc2ccon2)cn1)c1cc(Cl)c(-c2cccc(OCC(F)(F)F)c2)cc1OC` [Example 1-37, 6-((2-chloro-5-methoxy-3′-(2,2,2-trifluoroethoxy)-4-biphenylyl)(methylcarbamoyl)amino)-N-3-isoxazolyl-3-pyridinesulfonamide]: 11 nM; `CNC(=O)N(c1ccc(S(=O)(=O)Nc2ncccn2)cn1)c1cc(F)c(-c2ccc(Cl)c(C)c2)cc1OC` [Example 1-80, 6-((4′-chloro-2-fluoro-5-methoxy-3′-methyl-4-biphenylyl)(methylcarbamoyl)amino)-N-2-pyrimidinyl-3-pyridinesulfonamide]: 39 nM.
With `COc1cc(-c2cc(OC)c(N(C(N)=O)c3ccc(S(=O)(=O)Nc4ccon4)cn3)cc2Cl)cc(C(F)(F)F)c1` [Example 5-4, 6-(carbamoyl(2-chloro-3′,5-dimethoxy-5′-(trifluoromethyl)-4-biphenylyl)amino)-N-3-isoxazolyl-3-pyridinesulfonamide], inhibition was half-maximal at 7 nM (IC50).
With `CNC(=O)N(c1ccc(S(=O)(=O)Nc2ccon2)cn1)c1cc(Cl)c(-c2ccc(F)c(C)c2)cc1OC` [Example 1-28, 6-((2-chloro-4′-fluoro-5-methoxy-3′-methyl-4-biphenylyl)(methylcarbamoyl)amino)-N-3-isoxazolyl-3-pyridinesulfonamide], the IC50 came to 58 nM.
In turn, `CNC(=O)N(c1ccc(S(=O)(=O)Nc2ncccn2)cn1)c1ccc(-c2ccc(F)c(OC(F)(F)F)c2)cc1OC` [Example 2-7, 6-((4′-fluoro-3-methoxy-3′-(trifluoromethoxy)-4-biphenylyl)(methylcarbamoyl)amino)-N-2-pyrimidinyl-3-pyridinesulfonamide] yielded a half-inhibitory concentration (IC50) of 4 nM.
As for `CNC(=O)N(c1ccc(S(=O)(=O)Nc2ncccn2)cn1)c1cc(Cl)c(-c2ccc(F)c(OCC(F)(F)F)c2)cc1OC` [Example 3-1, 6-((2-chloro-4′-fluoro-5-methoxy-3′-(2,2,2-trifluoroethoxy)-4-biphenylyl)(methylcarbamoyl)amino)-N-2-pyrimidinyl-3-pyridinesulfonamide], the IC50 was 33 nM.
`CNC(=O)N(c1ccc(S(=O)(=O)Nc2ccon2)cn1)c1cc(Cl)c(-c2cccc(C3CC3)c2)cc1OC` [Example 1-38, 6-((2-chloro-3′-cyclopropyl-5-methoxy-4-biphenylyl)(methylcarbamoyl)amino)-N-3-isoxazolyl-3-pyridinesulfonamide] yielded an IC50 of 21 nM.
With `CNC(=O)N(c1ccc(S(=O)(=O)Nc2ccon2)cn1)c1cc(Cl)c(-c2cc(OC)cc(C(F)(F)F)c2)cc1OC` [Example 1-36, 6-((2-chloro-3′,5-dimethoxy-5′-(trifluoromethyl)-4-biphenylyl)(methylcarbamoyl)amino)-N-3-isoxazolyl-3-pyridinesulfonamide], the IC50 amounted to 11 nM.
In the case of `CNC(=O)N(c1ccc(S(=O)(=O)Nc2ccon2)cn1)c1cc(Cl)c(-c2ccnc(C(F)(F)F)c2)cc1OC` [Example 1-43, 6-((5-chloro-2-methoxy-4-(2-(trifluoromethyl)-4-pyridinyl)phenyl)(methylcarbamoyl)amino)-N-3-isoxazolyl-3-pyridinesulfonamide], the IC50 was 131 nM.
As to `CNC(=O)N(c1ccc(S(=O)(=O)Nc2ccon2)cn1)c1cc(-c2cccc(C(F)(F)F)c2)ccc1OC` [Example 4-2, N-3-isoxazolyl-6-((4-methoxy-3′-(trifluoromethyl)-3-biphenylyl)(methylcarbamoyl)amino)-3-pyridinesulfonamide], the IC50 was 187 nM.
On to `CNC(=O)N(c1ccc(S(=O)(=O)Nc2ncccn2)cn1)c1cc(F)c(-c2cc(F)c(F)c(F)c2)cc1OC` [Example 1-86, 6-((methylcarbamoyl)(2,3′,4′,5′-tetrafluoro-5-methoxy-4-biphenylyl)amino)-N-2-pyrimidinyl-3-pyridinesulfonamide], for which the IC50 came to 220 nM.
The same measure for `CNC(=O)N(c1ccc(S(=O)(=O)Nc2ccon2)cn1)c1cc(Cl)c(-c2ccc(Cl)c(OC)c2)cc1OC` [Example 1-33, 6-((2,4′-dichloro-3′,5-dimethoxy-4-biphenylyl)(methylcarbamoyl)amino)-N-3-isoxazolyl-3-pyridinesulfonamide]: 43 nM; for `CNC(=O)N(c1ccc(S(=O)(=O)Nc2ccon2)cn1)c1cc(Cl)c(-c2cccc(OC(F)(F)F)c2)cc1OC` [Example 1-39, 6-((2-chloro-5-methoxy-3′-(trifluoromethoxy)-4-biphenylyl)(methylcarbamoyl)amino)-N-3-isoxazolyl-3-pyridinesulfonamide]: 11 nM; for `CNC(=O)N(c1ccc(S(=O)(=O)Nc2ncccn2)cn1)c1cc(F)c(-c2ccc(Cl)c(Cl)c2)cc1OC` [Example 1-83, 6-((3′,4′-dichloro-2-fluoro-5-methoxy-4-biphenylyl)(methylcarbamoyl)amino)-N-2-pyrimidinyl-3-pyridinesulfonamide]: 32 nM.
The same measure for `CNC(=O)N(c1ccc(S(=O)(=O)Nc2ccon2)cn1)c1cc(-c2cc(F)cc(Cl)c2)ccc1OC` [Example 4-4, 6-((3′-chloro-5′-fluoro-4-methoxy-3-biphenylyl)(methylcarbamoyl)amino)-N-3-isoxazolyl-3-pyridinesulfonamide]: 173 nM.
`COc1cc(-c2cccc(C(F)(F)F)c2)c(Cl)cc1N(C(N)=O)c1ccc(S(=O)(=O)Nc2ccon2)cn1` [Example 5-1, 6-(1-(2-chloro-5-methoxy-3′-(trifluoromethyl)-[1,1′-biphenyl]-4-yl)ureido)-N-(isoxazol-3-yl)pyridine-3-sulfonamide]: the IC50 is 7 nM.
Next, `CNC(=O)N(c1ccc(S(=O)(=O)Nc2ncccn2)cn1)c1cc(Cl)c(-c2cc(Cl)cc(C#N)c2)cc1OC` [Example 1-78, 6-((2,3′-dichloro-5′-cyano-5-methoxy-4-biphenylyl)(methylcarbamoyl)amino)-N-2-pyrimidinyl-3-pyridinesulfonamide]: 123 nM.
The molecule `CNC(=O)N(c1ccc(S(=O)(=O)Nc2ccon2)cn1)c1cc(F)c(-c2ccc(F)c(Cl)c2)cc1OC` [Example 1-21, 6-((3′-chloro-2,4′-difluoro-5-methoxy-4-biphenylyl)(methylcarbamoyl)amino)-N-3-isoxazolyl-3-pyridinesulfonamide] registered an IC50 of 37 nM.
In turn, `CNC(=O)N(c1ccc(S(=O)(=O)Nc2ncccn2)cn1)c1cc(Cl)c(-c2ccc(F)c(OC(F)(F)F)c2)cc1OC` [Example 2-10, 6-((2-chloro-4′-fluoro-5-methoxy-3′-(trifluoromethoxy)-4-biphenylyl)(methylcarbamoyl)amino)-N-2-pyrimidinyl-3-pyridinesulfonamide] showed an IC50 of 8 nM.
Turning to `CNC(=O)N(c1ccc(S(=O)(=O)Nc2ccon2)cn1)c1cc(F)c(-c2cccc(OCC(F)(F)F)c2)cc1OC` [Example 1-12, 6-((2-fluoro-5-methoxy-3′-(2,2,2-trifluoroethoxy)-4-biphenylyl)(methylcarbamoyl)amino)-N-3-isoxazolyl-3-pyridinesulfonamide], the half-maximal inhibitory concentration (IC50) turned out to be 85 nM.
Next, `CNC(=O)N(c1ccc(S(=O)(=O)Nc2ccon2)cn1)c1cc(F)c(-c2cc(C)cc(Cl)c2)cc1OC` [Example 1-19, 6-((3′-chloro-2-fluoro-5-methoxy-5′-methyl-4-biphenylyl)(methylcarbamoyl)amino)-N-3-isoxazolyl-3-pyridinesulfonamide]: 47 nM; `CNC(=O)N(c1ccc(S(=O)(=O)Nc2ccon2)cn1)c1cc(-c2ccc(C)c(Cl)c2)c(Cl)cc1OC` [Example 4-9, 6-((3′,6-dichloro-4-methoxy-4′-methyl-3-biphenylyl)(methylcarbamoyl)amino)-N-3-isoxazolyl-3-pyridinesulfonamide]: 76 nM; `CNC(=O)N(c1ccc(S(=O)(=O)Nc2ncccn2)cn1)c1cc(F)c(-c2ccc(Cl)c(C(F)(F)F)c2)cc1OC` [Example 1-89, 6-((4′-chloro-2-fluoro-5-methoxy-3′-(trifluoromethyl)-4-biphenylyl)(methylcarbamoyl)amino)-N-2-pyrimidinyl-3-pyridinesulfonamide]: 45 nM.
The same measure for `CNC(=O)N(c1ccc(S(=O)(=O)Nc2ccon2)cn1)c1cc(F)c(-c2cc(OC)c(F)c(OC)c2)cc1OC` [Example 1-23, 6-((2,4′-difluoro-3′,5,5′-trimethoxy-4-biphenylyl)(methylcarbamoyl)amino)-N-3-isoxazolyl-3-pyridinesulfonamide]: 151 nM.
Next, `CNC(=O)N(c1ccc(S(=O)(=O)Nc2ccon2)cn1)c1cc(Cl)c(-c2cccc(OC(F)F)c2)cc1OC` [Example 1-47, 6-((2-chloro-3′-(difluoromethoxy)-5-methoxy-4-biphenylyl)(methylcarbamoyl)amino)-N-3-isoxazolyl-3-pyridinesulfonamide]: 72 nM.

For the origin of these results see patent US10668067B2, “Pyridine sulfonamides” (AMGEN INC., priority 2016, dated 2020).
